From ChEMBL document CHEMBL3588818 (Eur J Med Chem, 2015)

Assays:
PC-12 [1] = test: Selectivity index, ratio of Ki for sigma1 receptor in Sprague-Dawley rat cortical membranes to Ki for rat VAChT expressed in PC12 cell membranes; assay type: cell-based
[2] = molecular target: T1, Vesicular acetylcholine transporter (Rattus norvegicus, UniProt Q62666); test: Displacement of (-)-[3H]vesamicol from rat VAChT expressed in PC12 cell membranes incubated for 2 hrs by liquid scintillation counting based competitive radioligand binding assay; design: species or system PC-12; settings: read-out: Ki(app)
T1 sequence (Q62666 whole entry): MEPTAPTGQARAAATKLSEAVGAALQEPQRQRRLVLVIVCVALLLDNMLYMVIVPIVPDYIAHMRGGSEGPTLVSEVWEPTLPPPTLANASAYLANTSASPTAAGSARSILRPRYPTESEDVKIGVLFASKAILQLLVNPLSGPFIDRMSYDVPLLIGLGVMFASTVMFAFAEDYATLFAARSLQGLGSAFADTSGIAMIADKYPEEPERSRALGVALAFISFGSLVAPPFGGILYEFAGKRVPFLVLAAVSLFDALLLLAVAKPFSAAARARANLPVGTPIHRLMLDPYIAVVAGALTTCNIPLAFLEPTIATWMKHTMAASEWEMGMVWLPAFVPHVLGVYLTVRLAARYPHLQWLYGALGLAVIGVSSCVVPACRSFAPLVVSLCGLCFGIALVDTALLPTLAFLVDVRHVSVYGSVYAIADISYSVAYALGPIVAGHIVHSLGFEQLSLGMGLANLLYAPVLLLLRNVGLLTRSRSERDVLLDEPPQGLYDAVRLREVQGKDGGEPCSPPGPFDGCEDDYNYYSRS

PC-12 [3] = test: Selectivity index, ratio of Ki for sigma2 receptor in Sprague-Dawley rat liver membranes to Ki for rat VAChT expressed in PC12 cell membranes; assay type: cell-based
[4] = molecular target: Sigma non-opioid intracellular receptor 1 (Rattus norvegicus, UniProt Q9R0C9); test: Displacement of […] from sigma1 receptor in Sprague-Dawley rat cortical membranes incubated for 2 hrs by liquid scintillation counting based competitive radioligand binding assay; settings: read-out: Ki(app)
Sigma non-opioid intracellular receptor 1, sequence (Q9R0C9 whole entry): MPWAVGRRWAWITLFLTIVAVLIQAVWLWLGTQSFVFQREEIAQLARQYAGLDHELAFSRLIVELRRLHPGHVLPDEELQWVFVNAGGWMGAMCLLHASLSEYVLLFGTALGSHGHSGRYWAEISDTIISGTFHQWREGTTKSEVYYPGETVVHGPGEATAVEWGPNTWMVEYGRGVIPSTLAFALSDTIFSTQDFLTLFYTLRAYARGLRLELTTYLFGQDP

[5] = Displacement of [3H]DTG from sigma2 receptor in Sprague-Dawley rat liver membranes incubated for 2 hrs in presence of dextrallorphan by liquid scintillation counting based competitive radioligand binding assay; settings: read-out: Ki(app)
[6] = molecular target: T2, Vesicular acetylcholine transporter (Torpedo californica, UniProt P81721); test: Displacement of (-)-[3H]vesamicol from VAChT in Torpedo californica electric organ synaptic vesicles; design: species or system Tetronarce californica; settings: read-out: Ki(app)
T2 sequence (P81721 whole entry): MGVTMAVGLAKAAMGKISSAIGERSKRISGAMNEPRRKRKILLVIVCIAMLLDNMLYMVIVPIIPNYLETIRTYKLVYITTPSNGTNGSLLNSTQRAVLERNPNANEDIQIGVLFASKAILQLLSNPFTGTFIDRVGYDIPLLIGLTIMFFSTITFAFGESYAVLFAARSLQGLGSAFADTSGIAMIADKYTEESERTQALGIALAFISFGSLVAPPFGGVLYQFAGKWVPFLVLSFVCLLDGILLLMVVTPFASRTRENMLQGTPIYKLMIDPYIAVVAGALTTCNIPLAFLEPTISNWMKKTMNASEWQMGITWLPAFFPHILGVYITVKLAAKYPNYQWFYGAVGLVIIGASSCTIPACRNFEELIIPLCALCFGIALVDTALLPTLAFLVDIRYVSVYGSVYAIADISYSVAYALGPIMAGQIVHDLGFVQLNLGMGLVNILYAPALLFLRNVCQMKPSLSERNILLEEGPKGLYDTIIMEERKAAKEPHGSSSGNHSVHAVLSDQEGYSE

Row | SMILES | Ratio Ki (PC-12 [1]) | Ki [2] | Ratio Ki (PC-12 [3]) | Ki [4] | Ki [5] | Ki [6]
1 | O=C(c1ccc(F)cc1)C1CCN([C@@H]2CCCC[C@H]2O)CC1 (racemic) | < 0.1 | 3240 nM | 0.2 | 60.9 nM | 730 nM | –
2 | O[C@@H]1CC=CC[C@H]1N1CCC(c2ccccc2)CC1 (racemic) | 0.3 | 18.4 nM | 4.2 | 5.8 nM | 77.1 nM | 0.34 nM
3 | O[C@@H]1CC[C@@H](OCc2ccc(F)cc2)C[C@H]1N1CCC(c2ccncc2)CC1 (racemic) | < 0.1 | 1350 nM | < 0.1 | 26.4 nM | 85.8 nM | –
4 | O[C@@H]1C[C@@H](OCc2ccc(F)cc2)CC[C@H]1N1CCC(c2ccccc2)CC1 (racemic) | < 0.1 | 2390 nM | < 0.1 | 16.8 nM | 67.1 nM | –
5 | O[C@@H]1C[C@@H](OCc2ccc(F)cc2)CC[C@H]1N1CCN(c2ccccc2)CC1 (racemic) | < 0.1 | 6190 nM | 0.2 | 189 nM | 1040 nM | –
6 | O[C@@H]1C[C@@H](OCc2ccc(F)cc2)CC[C@H]1N1CC=C(c2ccccc2)CC1 (racemic) | < 0.1 | 2830 nM | < 0.1 | 15.9 nM | 55.5 nM | –
7 | CCN(CCCc1ccccc1)[C@@H]1CC[C@H](OCc2ccc(F)cc2)C[C@H]1O (racemic) | < 0.1 | 1930 nM | 0.1 | 19.7 nM | 280 nM | –
8 | O[C@@H]1C[C@@H](OCc2ccc(F)cc2)CC[C@H]1N1CCC(c2ccccc2)(c2ccccc2)CC1 (racemic) | 0.3 | 2730 nM | 2 | 736 nM | 5540 nM | –
9 | O[C@@H]1C[C@@H](OCc2ccc(F)cc2)CC[C@H]1N1CCC(Cc2ccccc2)CC1 (racemic) | < 0.1 | 1300 nM | 0.2 | 9.2 nM | 207 nM | –
10 | O=C(c1ccc(F)cc1)C1CCN([C@@H]2CC[C@H](OCc3ccc(F)cc3)C[C@H]2O)CC1 (racemic) | < 0.1 | 5840 nM | 0.3 | 65.4 nM | 2000 nM | –
11 | O=C(Nc1cccc2c1C[C@@H](N1CCC(c3ccccc3)CC1)[C@H](O)C2)c1ccc(F)cc1 (racemic) | 41.2 | 156 nM | 23.2 | 6430 nM | 3620 nM | –
12 | O=C(Nc1cccc2c1C[C@@H](N1CCC(Cc3ccccc3)CC1)[C@H](O)C2)c1ccc(F)cc1 (racemic) | 3.4 | 527 nM | 3.9 | 1770 nM | 2080 nM | –
13 | O=C(Nc1cccc2c1C[C@@H](O)[C@H](N1CCC(c3ccccc3)CC1)C2)c1ccc(F)cc1 (racemic) | 3.3 | 188 nM | 2.2 | 626 nM | 1380 nM | –
14 | O[C@@H]1CCCC[C@H]1N1CCC(O)(c2ccccc2)CC1 (racemic) | 0.4 | 1000 nM | 1.9 | 454 nM | 1990 nM | –
15 | CC(=O)C1(c2ccccc2)CCN([C@@H]2CCCC[C@H]2O)CC1 (racemic) | < 0.1 | 1460 nM | 0.1 | 22.5 nM | 164 nM | –
16 | O[C@@H]1CCCC[C@H]1N1CCC(c2ccccc2)(c2ccccc2)CC1 (racemic) | < 0.1 | 6710 nM | 0.3 | 43.2 nM | 1830 nM | –

Row | SMILES | Ratio Ki (PC-12 [1]) | Ki [2] | Ratio Ki (PC-12 [3]) | Ki [4] | Ki [5] | Ki [6]
17 | O[C@@H]1CCCC[C@H]1N1CCC(Cc2ccccc2)CC1 (racemic) | < 0.1 | 647 nM | 0.2 | 20.1 nM | 108 nM | –
18 | O[C@@H]1CC[C@@H](OCc2ccc(F)cc2)C[C@H]1N1CCC(c2ccccc2)CC1 (racemic) | 0.7 | 25.1 nM | 2.1 | 16.6 nM | 53.1 nM | –
19 | O[C@@H]1CC[C@@H](OCc2ccc(F)cc2)C[C@H]1N1CCN(c2ccccc2)CC1 (racemic) | 0.2 | 697 nM | 0.24 | 103 nM | 167 nM | –
20 | O[C@@H]1CC[C@@H](OCc2ccc(F)cc2)C[C@H]1N1CC=C(c2ccccc2)CC1 (racemic) | < 0.1 | 310 nM | 0.2 | 29.9 nM | 46.9 nM | –
21 | O[C@@H]1CC[C@@H](OCc2ccc(F)cc2)C[C@H]1N1CCC(O)(c2ccccc2)CC1 (racemic) | 0.2 | 316 nM | 0.4 | 47.3 nM | 134 nM | –
22 | CC(=O)C1(c2ccccc2)CCN([C@@H]2C[C@H](OCc3ccc(F)cc3)CC[C@H]2O)CC1 (racemic) | 0.2 | 260 nM | < 0.1 | 63.1 nM | 18.8 nM | –
23 | O[C@@H]1CC[C@@H](OCc2ccc(F)cc2)C[C@H]1N1CCC(c2ccccc2)(c2ccccc2)CC1 (racemic) | 0.8 | 603 nM | 3.9 | 456 nM | 2360 nM | –
24 | O[C@@H]1CC[C@@H](OCc2ccc(F)cc2)C[C@H]1N1CCC(Cc2ccccc2)CC1 (racemic) | 0.2 | 110 nM | 0.6 | 25.2 nM | 61.8 nM | –
25 | O[C@@H]1CC[C@@H](OCc2ccc(F)cc2)C[C@H]1N1CCc2ccccc2C1 (racemic) | < 0.1 | 4670 nM | < 0.1 | 59 nM | 45.9 nM | –
26 | O[C@@H]1CC[C@@H](OCc2ccc(F)cc2)C[C@H]1N1CCC(N2CCCCC2)CC1 (racemic) | 0.1 | 4790 nM | 0.1 | 553 nM | 543 nM | –
27 | O=C(c1ccc(F)cc1)C1CCN([C@@H]2C[C@H](OCc3ccc(F)cc3)CC[C@H]2O)CC1 (racemic) | < 0.1 | 1030 nM | 0.6 | 59.4 nM | 640 nM | –
28 | O[C@@H]1CCCC[C@H]1N1CCN(c2ccccc2)CC1 (racemic) | 0.1 | 838 nM | 0.8 | 83.9 nM | 695 nM | –
29 | O[C@@H]1CCCC[C@H]1N1CC=C(c2ccccc2)CC1 (racemic) | < 0.1 | 439 nM | 0.4 | 9.7 nM | 158 nM | –
30 | O=C(c1ccc(F)cc1)C1CCN([C@@H]2Cc3ccccc3C[C@H]2O)CC1 (racemic) | 8.8 | 24.4 nM | 1.6 | 215 nM | 284 nM | 2.7 nM
31 | Nc1cccc2c1C[C@@H](N1CCC(c3ccccc3)CC1)[C@H](O)C2 (racemic) | 4.7 | 25.1 nM | 18.9 | 119 nM | 474 nM | 0.013 nM
